Experimental data: ChEMBL document CHEMBL2074534, “In vitro P-glycoprotein affinity for atypical and conventional antipsychotics” (Life Sci, 2002)

target: MDR1 (P-glycoprotein, ABCB1) (Homo sapiens, UniProt P08183); experiment: TP_TRANSPORTER: ATP hydrolysis in membranes from MDR1-expressing insect cells; type: functional, cell membranes, insect cell, Membrane
Sequence (P08183 whole entry): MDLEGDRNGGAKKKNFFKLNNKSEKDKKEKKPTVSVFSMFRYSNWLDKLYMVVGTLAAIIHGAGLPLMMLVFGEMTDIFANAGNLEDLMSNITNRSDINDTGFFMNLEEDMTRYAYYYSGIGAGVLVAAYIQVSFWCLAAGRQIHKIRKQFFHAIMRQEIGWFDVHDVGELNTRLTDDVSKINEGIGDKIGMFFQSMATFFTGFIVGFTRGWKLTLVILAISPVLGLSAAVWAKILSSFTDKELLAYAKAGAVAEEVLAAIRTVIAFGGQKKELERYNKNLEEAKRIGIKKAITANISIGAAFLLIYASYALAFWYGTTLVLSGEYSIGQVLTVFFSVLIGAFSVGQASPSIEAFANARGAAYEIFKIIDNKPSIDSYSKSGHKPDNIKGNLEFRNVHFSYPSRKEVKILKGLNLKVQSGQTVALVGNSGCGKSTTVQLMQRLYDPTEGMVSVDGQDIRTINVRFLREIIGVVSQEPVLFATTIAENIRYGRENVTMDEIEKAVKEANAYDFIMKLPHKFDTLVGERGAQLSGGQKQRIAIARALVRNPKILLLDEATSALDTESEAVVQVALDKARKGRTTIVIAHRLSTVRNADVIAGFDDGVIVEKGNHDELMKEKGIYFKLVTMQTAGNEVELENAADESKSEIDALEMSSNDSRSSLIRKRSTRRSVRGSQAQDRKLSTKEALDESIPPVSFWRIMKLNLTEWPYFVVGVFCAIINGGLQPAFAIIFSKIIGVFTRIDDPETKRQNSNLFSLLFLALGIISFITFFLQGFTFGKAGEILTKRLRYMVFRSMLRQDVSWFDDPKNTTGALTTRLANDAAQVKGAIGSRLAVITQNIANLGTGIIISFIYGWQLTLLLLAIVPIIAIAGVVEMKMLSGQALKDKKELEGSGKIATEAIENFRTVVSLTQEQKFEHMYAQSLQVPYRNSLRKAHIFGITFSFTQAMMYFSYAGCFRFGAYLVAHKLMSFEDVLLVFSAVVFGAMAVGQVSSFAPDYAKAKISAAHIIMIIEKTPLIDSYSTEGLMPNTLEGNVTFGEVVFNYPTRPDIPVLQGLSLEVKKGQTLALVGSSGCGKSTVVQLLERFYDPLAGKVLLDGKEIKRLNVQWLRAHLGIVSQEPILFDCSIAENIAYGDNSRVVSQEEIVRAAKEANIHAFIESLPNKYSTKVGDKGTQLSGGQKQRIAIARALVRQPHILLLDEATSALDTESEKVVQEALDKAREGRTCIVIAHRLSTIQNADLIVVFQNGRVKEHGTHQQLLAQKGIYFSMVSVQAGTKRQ

Km | SMILES
33 µM | O=C(CCCN1CCC(O)(c2ccc(Cl)cc2)CC1)c1ccc(F)cc1 [HALOPERIDOL]
27.4 µM | CN(C)CCCN1c2ccccc2Sc2ccc(Cl)cc21 [CHLORPROMAZINE]

SMILES | Km
Cc1cc2c(s1)Nc1ccccc1N=C2N1CCN(C)CC1 [OLANZAPINE] | 8.3 µM
